The values below come from patent US11111245B2, “Derivatives of N-cycloalkyl/heterocycloalkyl-4-(imidazo[1,2-a]pyridine)pyrimidin-2-amine as therapeutic agents” (Aucentra Therapeutics Pty Ltd, priority 2017, dated 2021).

Holding throughout (assay type): biochemical
Experiment [1] has as its target CDK4/D1 (Homo sapiens, UniProt P11802). As to the kind of experiment: ADP Glo Kinase assay CDK4/D1. To be noted: CDK4D1; compound at 10 μM; read-out: residual activity (%) at 10 μM CDK4D1. The procedure:
(§1) Eurofins Pharma Discovery or Reaction Biology Corporation Kinase Profiler services were used to measure inhibition of CDKs and other kinases by radiometric assay. Inhibition of CDK4/D1, CDK6/D3 and CDK9/T1 were also determined in-house using ADP Glo Kinase assays (Promega Corporation, Madison, USA). Briefly, the kinase reaction for CDK4/D1 and CDK6/D3 was performed with kinase reaction buffer ([…] Tris base pH 7.5, 20 mM MgCl2, 0.4 mM DTT), 0.1 mg/ml BSA and RB-CTF substrate (retinoblastoma protein 1 C-terminal fraction). For CDK9/CyclinT1, the kinase reaction was performed with standard assay buffer and Kinase Dilution Buffer and RBER-IRStide substrate. Serial dilutions of 1:3 were prepared for test compounds for 10 concentrations (from 10 μM to 0.5 nM). The kinase reactions were started by addition of ATP, incubated for 40 min at 37° C. and then stopped by adding 10 μL of ADP Glo reagent. After incubation at room temperature in the dark for 40 min, 20 μL of kinase detection reagent was added per well and incubated for 40 min. Luminescence was measured using an EnVision Multilabel plate reader (PerkinElmer, Buckinghamshire, UK). Positive and negative controls were performed in the presence and absence of CDK kinases, respectively. Half-maximal inhibition (IC50) values were calculated using a 4-parameter logistic non-linear regression model with Graphpad prism (Version 6.0). Apparent inhibition constants (Ki) values were calculated from Km (ATP) and IC50 values for the respective kinases.
For orientation: ADP-Glo turns the ADP formed in a reaction into a luminescent signal.

The target in experiment [2] is CDK9/T1 (Homo sapiens, UniProt P50750). As to the kind of experiment: ADP Glo Kinase assay CDK9/T1. To be noted: CDK9T1; read-out: CDK inhibition, Ki (μM) CDK9T1. The procedure:
as §1

In experiment [3] the target is T1, CDKs and other kinases (Homo sapiens, UniProt P06493).
T1 construct: other: CDK1B; residual activity (%) at 10 μM CDK1B; compound at 10 μM
As to the kind of experiment: Radiometric kinase assay (Eurofins Pharma Discovery or Reaction Biology Corporation Kinase Profiler). To be noted: CDK1B; for Ki: read-out: CDK inhibition, Ki (μM) CDK1B; for remaining activity at 10 µM: compound at 10 μM, read-out: residual activity (%) at 10 μM CDK1B. How it is done: as §1

Experiment [4] has as its target T2, CDKs and other kinases (Homo sapiens, UniProt P24941).
T2 construct: other: CDK2A; residual activity (%) at 10 μM CDK2A; compound at 10 μM
The description is as above. To be noted: CDK2A; for Ki: read-out: CDK inhibition, Ki (μM) CDK2A; for remaining activity at 10 µM: compound at 10 μM, read-out: residual activity (%) at 10 μM CDK2A. The procedure:
as §1

In experiment [5] the target is T3, CDKs and other kinases (Homo sapiens, UniProt P50613).
T3 construct: other: CDK7H; residual activity (%) at 10 μM CDK7H; compound at 10 μM
The experiment is described as above. To be noted: CDK7H; for Ki: read-out: CDK inhibition, Ki (μM) CDK7H; for remaining activity at 10 µM: compound at 10 μM, read-out: residual activity (%) at 10 μM CDK7H. How it is done: as §1

Some results are limits rather than exact numbers.

T3 sequence (P50613 whole entry): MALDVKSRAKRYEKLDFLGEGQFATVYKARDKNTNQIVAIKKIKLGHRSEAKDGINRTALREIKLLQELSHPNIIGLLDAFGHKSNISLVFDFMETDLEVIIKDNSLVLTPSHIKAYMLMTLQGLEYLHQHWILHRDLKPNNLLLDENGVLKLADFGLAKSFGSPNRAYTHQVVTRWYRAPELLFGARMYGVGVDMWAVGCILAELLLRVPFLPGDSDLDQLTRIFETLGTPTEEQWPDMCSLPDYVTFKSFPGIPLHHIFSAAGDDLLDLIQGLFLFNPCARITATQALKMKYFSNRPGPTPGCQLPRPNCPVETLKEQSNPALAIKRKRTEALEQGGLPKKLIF
Sequence of CDK4/D1 (P11802 whole entry): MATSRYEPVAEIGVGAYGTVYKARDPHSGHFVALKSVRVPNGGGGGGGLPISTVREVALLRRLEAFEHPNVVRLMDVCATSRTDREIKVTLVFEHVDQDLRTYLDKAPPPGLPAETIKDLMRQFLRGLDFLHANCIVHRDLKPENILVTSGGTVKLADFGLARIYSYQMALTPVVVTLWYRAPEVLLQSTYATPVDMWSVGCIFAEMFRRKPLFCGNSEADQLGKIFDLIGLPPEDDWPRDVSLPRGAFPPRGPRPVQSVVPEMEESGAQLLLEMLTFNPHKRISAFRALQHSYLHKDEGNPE
Sequence of CDK4/D1 (P24385 whole entry partner): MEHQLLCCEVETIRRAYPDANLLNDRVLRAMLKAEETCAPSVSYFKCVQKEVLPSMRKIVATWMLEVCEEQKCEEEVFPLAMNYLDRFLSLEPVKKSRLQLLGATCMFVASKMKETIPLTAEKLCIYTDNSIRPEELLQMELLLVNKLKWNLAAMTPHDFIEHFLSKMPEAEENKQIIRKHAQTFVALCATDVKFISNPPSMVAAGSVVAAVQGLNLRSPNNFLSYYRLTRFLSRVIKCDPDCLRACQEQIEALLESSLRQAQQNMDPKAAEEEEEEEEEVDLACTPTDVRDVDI
T1 sequence (P06493 whole entry): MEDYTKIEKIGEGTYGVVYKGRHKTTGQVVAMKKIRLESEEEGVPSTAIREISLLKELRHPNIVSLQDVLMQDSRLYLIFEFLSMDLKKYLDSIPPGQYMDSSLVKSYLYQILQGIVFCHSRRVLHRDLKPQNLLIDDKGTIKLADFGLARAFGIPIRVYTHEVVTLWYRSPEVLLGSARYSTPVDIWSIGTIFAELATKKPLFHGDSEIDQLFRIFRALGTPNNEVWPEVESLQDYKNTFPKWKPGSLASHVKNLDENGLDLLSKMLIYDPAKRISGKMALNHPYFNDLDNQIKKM
Sequence of CDK9/T1 (P50750 whole entry): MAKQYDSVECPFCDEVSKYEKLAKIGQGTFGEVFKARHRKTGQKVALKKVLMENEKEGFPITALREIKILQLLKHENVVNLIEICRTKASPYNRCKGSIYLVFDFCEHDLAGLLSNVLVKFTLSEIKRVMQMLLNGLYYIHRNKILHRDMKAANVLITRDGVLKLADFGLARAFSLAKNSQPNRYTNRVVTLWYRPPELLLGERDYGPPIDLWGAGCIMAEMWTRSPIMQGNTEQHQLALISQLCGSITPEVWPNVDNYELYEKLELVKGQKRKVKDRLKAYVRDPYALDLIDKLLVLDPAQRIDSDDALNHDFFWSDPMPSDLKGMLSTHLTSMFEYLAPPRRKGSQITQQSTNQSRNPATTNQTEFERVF
Sequence of CDK9/T1 (O60563 whole entry partner): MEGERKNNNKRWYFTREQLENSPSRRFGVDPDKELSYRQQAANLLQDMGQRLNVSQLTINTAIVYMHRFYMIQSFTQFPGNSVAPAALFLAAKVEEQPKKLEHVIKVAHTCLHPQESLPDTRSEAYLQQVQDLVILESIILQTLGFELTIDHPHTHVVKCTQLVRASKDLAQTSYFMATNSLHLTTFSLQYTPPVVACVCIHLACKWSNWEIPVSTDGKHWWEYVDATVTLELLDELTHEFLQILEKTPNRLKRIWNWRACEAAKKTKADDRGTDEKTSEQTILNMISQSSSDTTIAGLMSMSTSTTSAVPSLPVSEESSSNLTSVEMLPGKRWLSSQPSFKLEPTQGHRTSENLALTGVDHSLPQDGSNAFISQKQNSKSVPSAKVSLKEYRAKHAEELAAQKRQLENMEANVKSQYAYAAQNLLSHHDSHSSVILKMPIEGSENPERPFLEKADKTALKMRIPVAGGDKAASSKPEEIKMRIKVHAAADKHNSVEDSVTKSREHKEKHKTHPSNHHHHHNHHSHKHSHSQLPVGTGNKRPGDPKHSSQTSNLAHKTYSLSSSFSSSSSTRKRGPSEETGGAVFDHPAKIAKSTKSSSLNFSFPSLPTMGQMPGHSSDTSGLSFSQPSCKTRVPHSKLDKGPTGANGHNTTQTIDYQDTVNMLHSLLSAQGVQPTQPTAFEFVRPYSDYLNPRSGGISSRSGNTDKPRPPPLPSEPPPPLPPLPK

The term Ki denotes a dissociation constant, usually derived from enzyme kinetics or from competition with a known ligand. `Cc1cnc(N[C@H]2CC[C@H](N)CC2)nc1-c1cnc2ccc(Nc3ccc(F)nc3)cn12` [Compound 123, (1r,4r)-N^1-(4-(6-((6-Fluoropyridin-3-yl)amino)imidazo [1,2-a]pyridin-3-yl)-5-methylpyrimidin-2-yl)cyclohexane-1,4-diamine]: the remaining activity at 10 µM in experiment [1] worked out at 31%. The Ki was found to be 0.011 µM in experiment [2], 1.53 µM in experiment [3], 0.3 µM in experiment [4] and 0.89 µM in experiment [5].

As for `COc1ccc(Nc2ccc3ncc(-c4nc(N[C@H]5CC[C@H](N)CC5)ncc4C)n3c2)cn1` [Compound 127, (1r,4r)-N^1-(4-(6-((6-Methoxypyridin-3-yl)amino)imidazo [1,2-a]pyridin-3-yl)-5-methylpyrimidin-2-yl)cyclohexane-1,4-diamine], the remaining activity at 10 µM in experiment [1] was determined as 32%; in experiment [3], 34%; in experiment [4] it was 0%; in experiment [5], 39%. The Ki in experiment [2] amounted to 0.045 µM.

With `COCCN[C@H]1CC[C@H](Nc2ncc(C)c(-c3cnc4ccc(-c5ccccc5)cn34)n2)CC1` [Compound 129, (1r,4r)-N^1-(2-Methoxyethyl)-N^4-(5-methyl-4-(6-phenylimidazo[1,2-a]pyridin-3-yl)pyrimidin-2-yl) cyclohexane-1,4-diamine], the remaining activity at 10 µM in experiment [1] amounted to 32%; in experiment [3], 42%; in experiment [4], 0%; in experiment [5], 18%. Moreover, in experiment [2], the Ki was determined as 0.12 µM.

As to `CN[C@H]1CC[C@H](Nc2ncc(C)c(-c3cnc4ccc(-c5ccccc5)cn34)n2)CC1` [Compound 133, (1r,4r)-N^1-Methyl-N^4-(5-methyl-4-(6-phenylimidazo[1,2-a]pyridin-3-yl)pyrimidin-2-yl)cyclohexane-1,4-diamine], the remaining activity at 10 µM in experiment [1] is 60%; in experiment [3], 22%; in experiment [4], 40%; in experiment [5], 10%. Moreover, the Ki in experiment [2] is 0.14 µM.

Regarding `Cc1cnc(N[C@H]2CC[C@H](N)CC2)nc1-c1cnc2ccc(Nc3ccncc3)cn12` [Compound 134, (1r,4r)-N^1-(5-Methyl-4-(6-(pyridin-4-ylamino)imidazo [1,2-a]pyridin-3-yl)pyrimidin-2-yl)cyclohexane-1,4-diamine], the remaining activity at 10 µM in experiment [1] amounted to 11%; in experiment [3] it was 43%; in experiment [4], 22%; in experiment [5] it was 28%. Moreover, the Ki in experiment [2] came out at 0.12 µM.

Consider `Cc1cnc(N[C@H]2CC[C@H](N3CCC3)CC2)nc1-c1cnc2ccc(Nc3cncc(F)c3)cn12` [Compound 139, 3-(2-(((1r,4r)-4-(Azetidin-1-yl)cyclohexyl)amino)-5-methylpyrimidin-4-yl)-N-(5-fluoropyridin-3-yl)imidazo [1,2-a]pyridin-6-amine], for which the remaining activity at 10 µM in experiment [1] worked out at 14%; in experiment [3], 31%; in experiment [4], 4%; in experiment [5], 15%. Besides, the Ki in experiment [2] is 0.044 µM.

`Cc1cnc(N[C@H]2CC[C@H](N3CCC3)CC2)nc1-c1cnc2ccc(Nc3cncnc3)cn12` [Compound 141, 3-(2-(((1r,4r)-4-(Azetidin-1-yl)cyclohexyl)amino)-5-methylpyrimidin-4-yl)-N-(pyrimidin-5-yl)imidazo [1,2-a]pyridin-6-amine]: the remaining activity at 10 µM amounted to 15% in experiment [1] and 30% in experiment [5]. The Ki was 0.011 µM in experiment [2], 0.532 µM in experiment [3] and 0.064 µM in experiment [4].

For the compound `Fc1cnc(NC2CCN(CC3CC3)CC2)nc1-c1cnc2ccc(-c3ccccc3)cn12` [Compound 145, N-(1-(Cyclopropylmethyl)piperidin-4-yl)-5-fluoro-4-(6-phenylimidazo[1,2-a]pyridin-3-yl)pyrimidin-2-amine], the remaining activity at 10 µM in experiment [1] came to 41%; in experiment [4], 22%. The Ki in experiment [2] worked out at 0.402 µM; in experiment [3], 0.222 µM; in experiment [5] it was 0.199 µM.

Turning to `CCS(=O)(=O)N1CCC(Nc2ncc(F)c(-c3cnc4ccc(-c5ccccc5)cn34)n2)CC1` [Compound 163, N-(1-(Ethylsulfonyl)piperidin-4-yl)-5-fluoro-4-(6-phenylimidazo[1,2-a]pyridin-3-yl)pyrimidin-2-amine], the remaining activity at 10 µM in experiment [1] worked out at 61%; in experiment [4] it was 0%; in experiment [5], 5%. The Ki in experiment [2] worked out at 4.57 µM.

`O[C@H]1CC[C@H](Nc2ncc(Cl)c(-c3cnc4ccc(-c5ccc(F)cc5)cn34)n2)CC1` [Compound 165, (1r,4r)-4-((5-Chloro-4-(6-(4-fluorophenyl)imidazo[1,2-a]pyridin-3-yl)pyrimidin-2-yl)amino)cyclohexan-1-ol]: the remaining activity at 10 µM in experiment [1] is 61%; in experiment [4], 51%; in experiment [5], 24%. In addition, in experiment [2], the Ki stood at 0.93 µM.

`O[C@H]1CC[C@H](Nc2ncc(Cl)c(-c3cnc4ccc(-c5cccnc5)cn34)n2)CC1` [Compound 166, (1r,4r)-4-((5-Chloro-4-(6-(pyridin-3-yl)imidazo[1,2-a]pyridin-3-yl)pyrimidin-2-yl)amino)cyclohexan-1-ol]: the remaining activity at 10 µM was found to be 54% in experiment [1], 8% in experiment [4] and 33% in experiment [5]. The Ki in experiment [2] came out at 1.28 µM.

In the case of `COc1ccc(-c2ccc3ncc(-c4nc(N[C@H]5CC[C@H](O)CC5)ncc4Cl)n3c2)cn1` [Compound 167, (1r,4r)-4-((5-Chloro-4-(6-(6-methoxypyridin-3-yl)imidazo[1,2-a]pyridin-3-yl)pyrimidin-2-yl)amino) cyclohexan-1-ol], the values for the remaining activity at 10 µM in experiment [1], in experiment [4] and in experiment [5] were 66%, 4% and 49%, respectively. In addition, in experiment [2], the Ki was 0.49 µM.

Regarding `Cc1cnc(NC2CCC(N3CCNC(=O)C3)CC2)nc1-c1cnc2ccc(Nc3cncnc3)cn12` (stereo not shown) [Compound 168, 4-(4-((5-Methyl-4-(6-(pyrimidin-5-ylamino)imidazo [1,2-a]pyridin-3-yl)pyrimidin-2-yl)amino)cyclohexyl) piperazin-2-one], the values for the remaining activity at 10 µM in experiment [1], in experiment [4] and in experiment [5] were 22%, 11% and 55%, respectively. For the same compound, the Ki in experiment [2] worked out at 0.181 µM.

Consider `CNC(=O)N[C@H]1CC[C@H](Nc2ncc(C)c(-c3cnc4ccc(-c5ccccc5)cn34)n2)CC1` [Compound 169, 1-Methyl-3-((1r,4r)-4-((5-methyl-4-(6-phenylimidazo [1,2-a]pyridin-3-yl)pyrimidin-2-yl)amino)cyclohexyl) urea], for which the remaining activity at 10 µM in experiment [1] turned out to be 81%; in experiment [4] it was 31%; in experiment [5] it was 35%. The Ki in experiment [2] was 1.88 µM.

Regarding `Fc1cnc(NC2CCNCC2)nc1-c1cnc2cc(-c3ccccc3)ccn12` [Compound 170, 5-Fluoro-4-(7-phenylimidazo[1,2-a]pyridin-3-yl)-N-(piperidin-4-yl)pyrimidin-2-amine], the remaining activity at 10 µM in experiment [1] stood at 5%; in experiment [4] it was 7%; in experiment [5], 18%. Further, in experiment [2], the Ki is above 5 µM.

On to `CS(=O)(=O)N1CCC(Nc2ncc(F)c(-c3cnc4cc(-c5ccccc5)ccn34)n2)CC1` [Compound 171, 5-Fluoro-N-(1-(methylsulfonyl)piperidin-4-yl)-4-(7-phenylimidazo[1,2-a]pyridin-3-yl)pyrimidin-2-amine], for which the results for the remaining activity at 10 µM in experiment [1], in experiment [4] and in experiment [5] were 47%, 35% and 65%, respectively. Besides, the Ki in experiment [2] was above 5 µM.

Regarding `CNC(=O)N[C@H]1CC[C@H](Nc2ncc(C)c(-c3cnc4ccc(Nc5cncnc5)cn34)n2)CC1` [Compound 172, 1-Methyl-3-((1r,4r)-4-((5-methyl-4-(6-(pyrimidin-5-ylamino)imidazo[1,2-a]pyridin-3-yl)pyrimidin-2-yl)amino)cyclohexyl)urea], the figures for the remaining activity at 10 µM in experiment [1], in experiment [4] and in experiment [5] were 6%, 2% and 21%, respectively. In addition, the Ki in experiment [2] is 0.005 µM.
